# Data: US20100184807A1, “Methods to inhibit tumor cell growth by using proton pump inhibitors” (Bio-Quant, Inc., priority 2008, published 2010)
# System: GDM-1 (leukemia)
# Assay: MTT tumor cell growth assay
# Format: cell-based
# Details: GDM-1 (FIG. 3J); 10 μM
# Description: In one study, adherent cells were plated approximately 16-24 hours before the day of the experiment in 180 μl growth media. On the day of the experiment, the plated adherent cells were analyzed and counted and suspension cells were plated in 180 μl growth media. 10× lansoprazole compounds and vehicle was prepared. The 10× lansoprazole compounds were prepared by diluting lansoprazole to final concentrations of 100 μM, 30 μM, 10 μM, 3 μM, and 1 μM. A vehicle was prepared by preparing a solution of PBS, equivalent to the volume used for 10 μM lansoprazole wherein the 1× solution constitutes ˜0.06% PBS. 10 μl of the various 10× lansoprazole solutions and the vehicle were added to the cells. The cells were incubated at 37° C., 5% CO2 for 48 hours. The media was then aspirated. The cell suspension was then spun at 1500 RPM for 10 minutes. The media was slowly removed. 200 μl of MTT solution was added to each well with a concentration of 0.863 mg/ml MTT in the growth media. The cells were incubated at 37° C., 5% CO2 for 4 hours and the medium is then aspirated. The plate containing the cell suspension was then spun at 1500 RPM for 10 minutes. The media was slowly removed using a multichannel pipettor. 100 μl of DMSO was then added to each well. The cells were incubated at 37° C., 5% CO2 for 5 minutes and the absorbance was obtained at 560 nm using a Dynex Opsys MR plate reader. The cells used for this procedure were the following cell lines: IGROV1 (ovarian cancer); OVCAR 8 (ovarian cancer); ES-2 (ovarian cancer); CAOV3 (ovarian cancer); OVCAR5 (ovarian cancer); SUDHL4 (lymphoma); RPMI8226 (myeloma); RPMI6666 (Hodgkin's lymphoma); NC37 (lymphoma); GDM-1 (leukemia); MC/CAR (prostate cancer); DU-145 (prostate cancer), J45-01 (leukemia), MOLT3 (leukemia), HUT78, J-gamma-1 (leukemia), MCF7 […], COL0205 (colon cancer), HL60 CLONE 15 (leukemia), T47D (breast cancer), P116 (intestinal cancer), KU812 (leukemia), SW620 (colon cancer), MK92-M1 (lymphoma), MV-4-11 (leukemia), HS578T (breast cancer), HT29 (colon cancer), HCT 116 (colon cancer), CAKI-1 (kidney cancer), A549 (lung cancer), H460 (lung cancer), A3 (colon cancer), MDA-MB231 […], MALME 3M (melanoma), RXF393 (kidney cancer), RS4.11 (leukemia), PC3 (prostate cancer), OVCAR3 (ovarian cancer), MDA-MB435 (melanoma), HUT102 (lymphoma), HL60 (leukemia), CCRF-CEM (leukemia), HUT78 (lymphoma), 786-O (kidney cancer), ACHN (kidney cancer), A498 (kidney cancer), H226 (lung cancer), H522 (lung cancer), HOP92 (lung cancer), SNB 19 (brain cancer), OVCAR4 (ovarian cancer), H9 (lymphoma), UO-31 (kidney cancer), HH (lymphoma), DAUDI (leukemia), LOXIMVI (melanoma), NAMALWA (lymphoma), EKVX (lung cancer), DOHH2 (lymphoma), SNB75 (brain cancer), SKMEL28 (melanoma), SKMEL5 (melanoma), SKMEL2 (melanoma), M14 (melanoma), UACC 257 (melanoma), H332M (lung cancer), KM12 (colon cancer), HCC2998 (colon cancer), G401 (kidney cancer), RS1184 (lymphoma), MC116 (leukemia), MOLT4 (leukemia), JM1 (liver cancer), HOP-62 (lung cancer), HCT-15 (colon cancer), SF-539 (brain cancer), SF295 (brain cancer), ST486 (lymphoma), U251 (brain cancer), and UACC-62 (melanoma).
# Experiments, as described in Example I were conducted with lansoprazole, omeprazole and SCH 28080 at concentrations of 1 μM, 10 μM, and 100 μM. FIGS. 3A-3K show the experimental results when tumor cells from the following cell lines were treated with lansoprazole, omeprazole, and SCH 28080: IGROV1 (FIG. 3A), OVCAR8 (FIG. 3B), ES-2 (FIG. 3C), CAOV3 (FIG. 3D), OVCAR5 (FIG. 3E), SUDHL4 (FIG. 3F), RPMI8226 (FIG. 3G), RPMI6666 (FIG. 3H), NC37 (FIG. 3I), GDM-1 (FIG. 3J), and MC/CAR (FIG. 3K).
smiles,measurement,value
"Cc1nc2c(OCc3ccccc3)cccn2c1CC#N [SCH28080, SCH 28080]",reducing tumor cell growth,effective in reducing tumor cell growth
